Reference: DBAASP
Values after ≈ are worked out from the molar mass of the structure shown. Values joined by “and” are separate entries in the source; they are usually repeats but may differ in a detail not shown here. Identical values can stand only once. Values belong to the compound of their own block, whether it stands above or below them.

Experiments:
Assay in all cases: ≥ marks a high value that may be exact or a test limit, other limits are often not marked, values filed in µg/mL are converted to µM
[1] = system: Candida albicans ATCC 90028
[2] = system: Aspergillus flavus KCTC 1375
[3] = system: Enterococcus faecium ATCC 19434
Escherichia coli = system: Escherichia coli
[4] = system: Escherichia coli O157:H7 ATCC 43895
Pseudomonas aeruginosa = system: Pseudomonas aeruginosa
[5] = system: Malassezia furfur KCTC 7744
Enterococcus faecium = system: Enterococcus faecium
[6] = system: Staphylococcus aureus ATCC 25923
Staphylococcus aureus = system: Staphylococcus aureus
[7] = system: Pseudomonas aeruginosa ATCC 27853
Candida tropicalis 4912 = system: Candida tropicalis 4912
[8] = system: Klebsiella pneumoniae 202
Candida albicans 4748 = system: Candida albicans 4748
Candida albicans 4615 = system: Candida albicans 4615
[9] = system: Erwinia amylovora PMV 6076
Candida krusei ATCC 6258 = system: Candida krusei ATCC 6258
[10] = system: Xanthomonas campestris pv. Vesicatoria 2133-2
[11] = system: Klebsiella pneumoniae 341
[12] = system: Xanthomonas fragariae Xf349-9A
Acinetobacter sp. 312 = system: Acinetobacter sp. 312
[13] = system: Pseudomonas syringae pv. syringae EPS 94
[14] = system: Candida tropicalis ATCC 13803
Candida tropicalis 4345 = system: Candida tropicalis 4345
Acinetobacter sp. 301 = system: Acinetobacter sp. 301
[15] = system: Candida glabrata ATCC 15126
Escherichia coli 43 = system: Escherichia coli 43
Escherichia coli 35 = system: Escherichia coli 35
Escherichia coli 225 = system: Escherichia coli 225
Acinetobacter sp. 322 = system: Acinetobacter sp. 322
Candida albicans SC5314 = system: Candida albicans SC5314
Escherichia coli 207 = system: Escherichia coli 207
Candida albicans = system: Candida albicans
[16] = system: Candida parapsilosis ATCC 22019
[17] = system: Pseudomonas aeruginosa 302
Candida albicans 4762 = system: Candida albicans 4762
Candida tropicalis = system: Candida tropicalis
[18] = system: Pseudomonas syringae pv. actinidiae Psa3700.1.1
[19] = system: Escherichia coli ATCC 25922
[20] = system: Klebsiella pneumoniae 305
[21] = system: Xanthomonas arboricola pv. pruni CFBP 5563
Pseudomonas aeruginosa 1 = system: Pseudomonas aeruginosa 1
Staphylococcus aureus 1 = system: Staphylococcus aureus 1
Escherichia coli O157 = system: Escherichia coli O157
Pseudomonas aeruginosa 5 = system: Pseudomonas aeruginosa 5
Staphylococcus aureus 4 = system: Staphylococcus aureus 4
Pseudomonas aeruginosa 2 = system: Pseudomonas aeruginosa 2
[22] = system: Streptococcus pyogenes ATCC 19615
Klebsiella pneumoniae = system: Klebsiella pneumoniae
[23] = system: Listeria monocytogenes NCTC 7973
Salmonella typhimurium = system: Salmonella typhimurium
[24] = system: Saccharomyces cerevisiae PEP 4/3l
[25] = system: Escherichia coli DH5alpha
Escherichia coli W160-37 = system: Escherichia coli W160-37
Corynebacterium xerosis = system: Corynebacterium xerosis
[26] = system: Enterococcus faecalis ATCC 29212
[27] = system: Staphylococcus aureus SAP 0017
[28] = system: Staphylococcus epidermidis
Acinetobacter baumannii = system: Acinetobacter baumannii
[29] = system: Staphylococcus aureus ATCC 8530
[30] = system: Staphylococcus aureus ATCC 43300
[31] = system: Staphylococcus haemolyticus
Enterococcus faecalis = system: Enterococcus faecalis

MIC [1]: ≥ 40 µM
MIC [2]: 28.3 µM (≈ 56.9 µg/mL)
MIC [3]: 28.3 µM (≈ 56.9 µg/mL)
MIC (Escherichia coli): 28.3 µM (≈ 56.9 µg/mL)
MIC [4]: 20 µM (≈ 40.2 µg/mL)
MIC (Pseudomonas aeruginosa): 28.3 µM (≈ 56.9 µg/mL)
MIC [5]: ≥ 40 µM
MIC (Enterococcus faecium): 28.3 µM (≈ 56.9 µg/mL)
MIC [6]: 20 µM (≈ 40.2 µg/mL)
MIC (Staphylococcus aureus): 14.1 µM (≈ 28.4 µg/mL)
MIC [7]: 20 µM (≈ 40.2 µg/mL)
SMILES: CC(C)[C@H](NC(=O)[C@H](Cc1cnc[nH]1)NC(=O)[C@H](C)NC(=O)[C@H](C)NC(=O)[C@H](CCCCN)NC(=O)[C@H](CCCCN)NC(=O)[C@H](Cc1ccccc1)NC(=O)[C@H](Cc1ccccc1)NC(=O)[C@H](CO)NC(=O)CNC(=O)[C@H](Cc1c[nH]c2ccccc12)NC(=O)CN)C(=O)NCC(=O)N[C@@H](CCCCN)C(=O)N[C@@H](Cc1cnc[nH]1)C(=O)N[C@H](C(=O)NCC(=O)N[C@@H](CCCCN)C(=O)N[C@@H](C)C(N)=O)C(C)C [GWGSFFKKAAHVGKHVGKA]

MIC (Candida tropicalis 4912): 10.5 µM (≈ 12.5 µg/mL)
MIC [8]: 6.71 µM (≈ 8 µg/mL)
MIC (Candida albicans 4748): 21 µM (≈ 25 µg/mL)
MIC (Candida albicans 4615): ≥ 42 µM
MIC [9]: ≥ 50 µM
MIC (Candida krusei ATCC 6258): 21 µM (≈ 25 µg/mL)
MIC [10]: ≥ 50 µM
MIC [11]: 1.68 µM (≈ 2 µg/mL)
MIC [12]: ≥ 50 µM
MIC (Acinetobacter sp. 312): 4.75 µM (≈ 5.66 µg/mL)
MIC [13]: ≥ 50 µM
MIC [14]: 21 µM (≈ 25 µg/mL)
MIC (Candida tropicalis 4345): 21 µM (≈ 25 µg/mL)
MIC (Acinetobacter sp. 301): 2.37 µM (≈ 2.83 µg/mL)
MIC [15]: 21 µM (≈ 25 µg/mL)
MIC (Escherichia coli 43): 3.36 µM (≈ 4 µg/mL)
MIC (Escherichia coli 35): 6.71 µM (≈ 8 µg/mL)
MIC (Escherichia coli 225): 0.839 µM (≈ 1 µg/mL)
MIC (Acinetobacter sp. 322): 3.36 µM (≈ 4 µg/mL)
MIC (Candida albicans SC5314): 10.5 µM (≈ 12.5 µg/mL)
MIC (Escherichia coli 207): 1.68 µM (≈ 2 µg/mL)
MIC (Candida albicans): 5.25 µM (≈ 6.25 µg/mL)
MIC [16]: 5.25 µM (≈ 6.25 µg/mL)
MIC [17]: 6.71 µM (≈ 8 µg/mL)
MIC (Candida albicans 4762): ≥ 83.9 µM
MIC (Candida tropicalis): ≥ 83.9 µM
MIC [18]: ≥ 50 µM
MIC [19]: 0.839 µM (≈ 1 µg/mL)
MIC [20]: 3.36 µM (≈ 4 µg/mL)
MIC [21]: ≥ 50 µM
SMILES: CC(C)C[C@H](NC(=O)[C@H](CCC(N)=O)NC(=O)[C@H](CCCCN)NC(=O)[C@H](CCCN=C(N)N)NC(=O)[C@H](Cc1ccccc1)NC(=O)[C@@H](N)Cc1c[nH]c2ccccc12)C(=O)N[C@@H](CCCCN)C(=O)N[C@@H](Cc1c[nH]c2ccccc12)C(=O)O [WFRKQLKW]

MIC (Pseudomonas aeruginosa 1): 5 µM (≈ 6.26 µg/mL)
MIC (Staphylococcus aureus 1): 2.5 µM (≈ 3.13 µg/mL)
MIC (Escherichia coli O157): 5 µM (≈ 6.26 µg/mL)
MIC (Pseudomonas aeruginosa): 10 µM (≈ 12.5 µg/mL)
MIC (Pseudomonas aeruginosa 5): 2.5 µM (≈ 3.13 µg/mL)
MIC (Staphylococcus aureus 4): 5 µM (≈ 6.26 µg/mL)
MIC (Enterococcus faecium): 5 µM (≈ 6.26 µg/mL)
MIC (Staphylococcus aureus): 14.1 µM (≈ 17.7 µg/mL)
MIC (Pseudomonas aeruginosa 2): 3.54 µM (≈ 4.43 µg/mL)
SMILES: CC[C@H](C)[C@H](NC(=O)[C@H](CC(C)C)NC(=O)[C@H](CCCN=C(N)N)NC(=O)[C@@H](NC(=O)[C@H](C)NC(=O)[C@H](CCCCN)NC(=O)[C@H](CCCN=C(N)N)NC(=O)[C@H](CC(C)C)NC(=O)[C@@H](N)CCCN=C(N)N)C(C)C)C(=O)N[C@@H](CCCCN)C(=O)O [RLRKAVRLIK]

MIC [22]: 0.547 µM (≈ 0.999 µg/mL)
MIC (Klebsiella pneumoniae): 50 µM (≈ 91.4 µg/mL)
MIC [23]: 0.547 µM (≈ 0.999 µg/mL)
MIC (Salmonella typhimurium): ≥ 50 µM
MIC (Escherichia coli): 4.37 µM (≈ 8 µg/mL)
MIC [24]: 6.7 µM (≈ 12.2 µg/mL)
MIC [25]: ≥ 45 µM
MIC (Pseudomonas aeruginosa): > 100 µM
MIC (Escherichia coli W160-37): 12.2 µM (≈ 22.3 µg/mL)
MIC (Corynebacterium xerosis): 0.547 µM (≈ 0.999 µg/mL)
MIC [26]: 4.37 µM (≈ 8 µg/mL)
MIC [27]: 2.19 µM (≈ 4 µg/mL)
MIC [28]: 1.09 µM (≈ 2 µg/mL)
MIC [6]: 2.19 µM (≈ 4 µg/mL)
MIC (Acinetobacter baumannii): 5.6 µM (≈ 10.2 µg/mL)
MIC [29]: 1.55 µM (≈ 2.83 µg/mL)
MIC [30]: 14.7 µM (≈ 26.9 µg/mL)
MIC (Enterococcus faecalis): 2 µM (≈ 3.66 µg/mL)
MIC [19]: 14.7 µM (≈ 26.9 µg/mL)
SMILES: CC[C@H](C)[C@H](N)C(=O)N[C@@H](CC(C)C)C(=O)N[C@@H](C)C(=O)N[C@@H](Cc1c[nH]c2ccccc12)C(=O)N[C@@H](CCCCN)C(=O)N[C@@H](Cc1c[nH]c2ccccc12)C(=O)N[C@@H](C)C(=O)N[C@@H](Cc1c[nH]c2ccccc12)C(=O)N[C@@H](Cc1c[nH]c2ccccc12)C(=O)N[C@@H](C)C(=O)N[C@@H](Cc1c[nH]c2ccccc12)C(=O)N[C@@H](CCCN=C(N)N)C(=O)N[C@@H](CCCN=C(N)N)C(N)=O [ILAWKWAWWAWRR]
MIC [31]: 1.09 µM and 0.547 µM
